Test results: patent publication US20040018582A1, “Genes and gene products that confer susceptibility to vancomycin derivative antibiotics and methods and assays for identifying bifunctional glycopeptide antibiotics using same” (priority 2001, published 2004)
In brackets after ≈: the same amount, converted by molar mass.

Columns and labels:
Format in all cases: cell-based, Escherichia coli
mutant strain BE102 = experiment: MIC, standard microdilution in LB medium; conditions: 35° C., 22 hours
Experimental: (§1) The imp mutation alters the permeability of the outer membrane and confers sensitivity to vancomycin and its carbohydrate derivatives as well as to moenomycin. BE100 is an isolate of BAS849 (MC4100 ΔlamB106 imp 4213). B. A. Sampson et al., Genetics 122, 491(1989).
(§2) MICs were determined against strains grown in LB medium in a standard microdilution format.

mutant strain BE103 = experiment: MIC, standard microdilution in LB medium; conditions: 35° C., 22 hours
Experimental: as §1, §2

mutant strain BE101 [1] = experiment: MIC, standard microdilution in LB medium; conditions: 35° C., 22 hours
Experimental: as §1, §2

[2] = test system: wild-type strain BE100 (E. coli imp); experiment: MIC, standard microdilution in LB medium; conditions: 35° C., 22 hours
Experimental: as §1, §2

[3] = test system: mutant strains BE101, BE102, BE103 compared to wild-type BE100; experiment: Comparison of antibiotic effectiveness in mutant (yfgL) strains versus wild-type strain; conditions: for resistance or sensitivity of the mutants: mutants vs parent strain BE100, by MIC
Experimental: The present inventions are directed to methods of identifying a compound having transglycosylase inhibitory activity. The method includes contacting the compound with cells having the wild type yfgL gene and then measuring the antibiotic effectiveness and contacting the compound with cells having the mutant yfgL gene and measuring the antibiotic effectiveness the compound.
as §2
Some antibiotics, for example the β-lactams, show a decrease in their bactericidal effectiveness against slow-growing cells. E. Tuomanen et al., J. Gen. Microbiol. 132, 1297 (1986). […] R. Kerns et al., J. Am. Chem. Soc. 122, 12608 (2000).
Examples of transpeptidase inhibitors include, but are not limited to, ampicillin, penicillin or cefoxitin (p-lactams). Compounds that inhibit cytoplasmic steps of peptidoglycan synthesis include, but are not limited to, fosfomycin and cycloserine.

wild-type BE100 = experiment: Time-kill curves at MIC; conditions: wild-type BE100, vancomycin 0.8 μg/ml
Experimental: (§3) FIGS. 1C and 1D represent time-kill curves of wild-type BE100 (C) and mutant strain BE101 (D) in the presence of antibiotics at their MICs. A standard microdilution assay was performed in LB. Samples were removed and serial dilutions were plated onto antibiotic-free agar after 15, 30, 60, 120 and 240 minutes of exposure to each antibiotic.

mutant strain BE101 [4] = experiment: Time-kill curves at MIC; conditions: mutant BE101, vancomycin […]
Experimental: as §3

Row | Compound | minimum inhibitory concentration (MIC) (mutant strain BE102) [µg/mL] | minimum inhibitory concentration (MIC) (mutant strain BE103) [µg/mL] | minimum inhibitory concentration (MIC) (mutant strain BE101 [1]) [µg/mL] | minimum inhibitory concentration (MIC) [2] [µg/mL] | times less active in resistant strains compared to the wild-type strain ([3]; all three resistant strains vs wild-type) | survival on exposure at MIC (wild-type BE100) | survival on exposure at MIC (mutant strain BE101 [4]) | resistance or sensitivity of the mutants [3] | step of peptidoglycan synthesis blocked, found using wild type/mutant yfgL assay [3]
1 | Moenomycin | 0.8 | 3.2 | 1.6 | 0.03 | 27-100 times | – | – | – | –
2 | CN[C@H](CC(C)C)C(=O)N[C@H]1C(=O)N[C@@H](CC(N)=O)C(=O)N[C@H]2C(=O)N[C@H]3C(=O)N[C@H](C(=O)N[C@H](C(=O)O)c4cc(O)cc(O)c4-c4cc3ccc4O)[C@H](O)c3ccc(c(Cl)c3)Oc3cc2cc(c3O[C@@H]2O[C@H](CO)[C@@H](O)[C@H](O)[C@H]2O[C@H]2C[C@](C)(N)[C@H](O)[C@H](C)O2)Oc2ccc(cc2Cl)[C@H]1O [Vancomycin] | 1.6 (≈ 1.1 µM) | 1.6 (≈ 1.1 µM) | 1.6 (≈ 1.1 µM) | 0.8 (≈ 0.552 µM) | – | prevented growth of all the strains but did not kill them | prevented growth of all the strains but did not kill them | did not show any resistance | –
3 | gentamicin | – | – | – | – | – | – | – | sensitive | –
4 | Desleucyl chlorobiphenyl vancomycin | >125 | >125 | >125 | 25 | – | – | – | – | –
5 | Teicoplanin | 3 | 4 | 16 | 0.25 | – | – | – | resistant | block the transglycosylation step of peptidoglycan synthesis
6 | CC[C@H]1OC(=O)[C@H](C)[C@@H](O[C@H]2C[C@@](C)(OC)[C@@H](O)[C@H](C)O2)[C@H](C)[C@@H](O[C@@H]2O[C@H](C)C[C@H](N(C)C)[C@H]2O)[C@](C)(O)C[C@@H](C)C(=O)[C@H](C)[C@@H](O)[C@]1(C)O [erythromycin] | – | – | – | – | – | – | – | sensitive | –
7 | CC1(C)S[C@@H]2[C@H](NC(=O)Cc3ccccc3)C(=O)N2[C@H]1C(=O)O [Penicillin G] | 1.6 (≈ 4.78 µM) | 3.2 (≈ 9.57 µM) | 3.2 (≈ 9.57 µM) | 3.2 (≈ 9.57 µM) | – | – | – | – | –
